# Literature values as cited in patent US20100322961A1, “Intranasal Drug Delivery System” (priority 2007, published 2010).
# Settings: pure substance; background statement
compound,measurement,value
COc1cc(CNC(=O)CCCC/C=C/C(C)C)ccc1O [capsaicin],pungency (Scoville heat units),"15,000,000-16,000,000 Scoville units"
